“Also recorded” adds a separate entry of the source.
What was measured:
NCI-H460 = assay: MTT antiproliferative assay, NCI-H460; type: cell-based, human; conditions: mean ± SD
Protocol: (§1) Having evaluated their Topo I inhibitory activity, the antiproliferative activity of the target compounds against some common human cancer cell lines (NCI-H460, A549, ACHN, Cal27 and MGC-803) and one normal cell line (SV-HUC-1) was tested via an MTT assay. TPT, the first Topo I inhibitor approved in clinics, and cisplatin (CDDP), a commonly selected anticancer drug for treating head and neck malignancies, were used as the positive controls.
(§2) Human oral cancer Cal27 cells were seeded in 96-well plates and incubated overnight in 180 μL of medium containing 10% Fetal Bovine Serum (Gibco, San Francisco, CA, USA). […] Then, 10 μL of 5 mg/mL MTT solution was added to each well and incubated at 37 °C for 4 h. After 4 h of incubation at 37 °C, the MTT-containing medium was removed and DMSO was added to each well and the absorbance at 570 nm and 630 nm was measured using a microplate reader (CYTATION 3, Burton, Westwood, NJ, USA). Survival/% = (mean OD of experimental group/mean OD of control group) × 100%. Each test was repeated at least three times.

A549 = assay: MTT antiproliferative assay, A549; type: cell-based, human; conditions: mean ± SD
Protocol: as §1, §2

ACHN = assay: MTT antiproliferative assay, ACHN; type: cell-based, human; conditions: 48 h, mean ± SD
Protocol: as §1, §2

Cal27 = assay: MTT antiproliferative assay, Cal27; type: cell-based, human; conditions: mean ± SD
Protocol: as §1, §2

MGC-803 = assay: MTT antiproliferative assay, MGC-803; type: cell-based, human; conditions: mean ± SD
Protocol: as §1, §2

SV-HUC-1 = assay: MTT assay, normal cell line SV-HUC-1; type: cell-based; conditions: mean ± SD
Protocol: as §1, §2

Topo I = biological target: T1, Topo I (Homo sapiens, UniProt P11387); assay: Topo I inhibitory activity, agarose gel electrophoresis (pBR322); type: biochemical; conditions: for nicked DNA in the lane (DNA breakage) / Topo I inhibitory activity (in words): 20 μM
T1 sequence (P11387 1-765): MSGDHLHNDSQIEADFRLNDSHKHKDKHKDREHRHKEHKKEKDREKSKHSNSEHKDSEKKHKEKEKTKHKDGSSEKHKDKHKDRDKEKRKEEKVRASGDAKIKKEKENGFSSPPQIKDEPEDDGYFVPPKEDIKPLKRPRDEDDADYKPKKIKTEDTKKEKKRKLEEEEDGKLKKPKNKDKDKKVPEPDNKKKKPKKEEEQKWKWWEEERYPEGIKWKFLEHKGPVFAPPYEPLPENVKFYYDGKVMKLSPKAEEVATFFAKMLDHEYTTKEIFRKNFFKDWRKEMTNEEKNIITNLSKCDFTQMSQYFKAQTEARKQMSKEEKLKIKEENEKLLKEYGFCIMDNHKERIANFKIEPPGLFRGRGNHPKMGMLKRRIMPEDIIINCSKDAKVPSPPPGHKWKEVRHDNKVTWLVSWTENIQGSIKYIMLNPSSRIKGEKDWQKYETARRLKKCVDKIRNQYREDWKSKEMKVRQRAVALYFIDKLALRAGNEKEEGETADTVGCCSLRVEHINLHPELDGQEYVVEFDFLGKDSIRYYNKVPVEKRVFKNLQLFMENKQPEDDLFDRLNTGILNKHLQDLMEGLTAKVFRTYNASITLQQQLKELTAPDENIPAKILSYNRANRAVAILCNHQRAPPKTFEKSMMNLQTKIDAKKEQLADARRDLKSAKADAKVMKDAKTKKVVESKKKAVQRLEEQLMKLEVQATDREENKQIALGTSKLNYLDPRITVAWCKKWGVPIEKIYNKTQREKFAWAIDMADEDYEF
Protocol: In this assay, 250 ng of pBR322 plasmid DNA, different concentrations of the compounds to be tested, 0.1% BSA 1 μL, 10× Topo I buffer, Topo I and add 1× TAE buffer were mixed to a final volume of 20 μL. The reaction was carried out for 30 min at 37 °C in a water bath. After the reaction was terminated, 4 μL of each of the 6× DNA Sampling Buffers were added to the gel. The pBR322 plasmid DNA alone was used as a negative control, and camptothecin was used as a positive control. Finally, the samples were loaded onto the gels and electrophoresed for about 1.5 h. After electrophoresis, the gel blocks were incubated in 1 mg/L ethidium bromide (EB) for 30 min and then visualized on the gel system.

Row | SMILES | IC50 (NCI-H460; Homo sapiens, NCI-H460, 48 h) [µM] | IC50 (A549; Homo sapiens, A549, 48 h) [µM] | IC50 (ACHN; Homo sapiens, ACHN) [µM] | IC50 (Cal27; Homo sapiens, CAL-27, 48 h) [µM] | IC50 (MGC-803; Homo sapiens, MGC-803, 48 h) [µM] | IC50 (SV-HUC-1; SV-HUC1, 48 h) [µM] | nicked DNA in the lane (DNA breakage) (Topo I) | Topo I inhibitory activity (in words) (Topo I) | concentration at which the activity of Topo I was fully inhibited (Topo I; different concentrations) [µM] | IC50 (NCI-H460; 48 h) [µM] | IC50 (A549; 48 h) [µM] | IC50 (ACHN) [µM] | IC50 (Cal27; 48 h) [µM] | IC50 (MGC-803; 48 h) [µM] | IC50 (SV-HUC-1; 48 h) [µM]
1 | CN(C)CCCNc1nc2c(c3ccccc13)S(=O)(=O)c1ncccc1-2 [7af, 5-((3-(Dimethylamino)propyl)amino)pyrido[3′,2′:4,5] thieno[3,2-c]isoquinoline 11,11-dioxide] | 64.5 ± 2.88 | 13.8 ± 2.53 | 14.7 ± 0.15 | 10.6 ± 0.96 | 9.84 ± 1.32 | > 100 | nicked DNA could be clearly observed | – | – | – | – | – | – | – | –
2 | O=S1(=O)c2ncccc2-c2nc(NCCCN3CCCC3)c3ccccc3c21 [7ah, 5-((3-(Pyrrolidin-1-yl)propyl)amino)pyrido[3′,2′:4,5] thieno[3,2-c]isoquinoline 11,11-dioxide] | 42.7 ± 2.28 | 27.7 ± 1.49 | 13 ± 1.24 | 23.1 ± 2.48 | 19.5 ± 0.87 | > 100 | nicked DNA could be clearly observed | – | – | – | – | – | – | – | –
3 | CCN(CC)CCCNc1nc2c(c3ccccc13)S(=O)(=O)c1ncccc1-2 [7ag, 5-((3-(Diethylamino)propyl)amino)pyrido[3′,2′:4,5] thieno[3,2-c]isoquinoline 11,11-dioxide] | 57.8 ± 0.65 | 30 ± 0.31 | 26.9 ± 0.72 | 22.5 ± 1.84 | 24.37 ± 0.18 | 75.8 ± 2.79 | nicked DNA could be clearly observed | – | – | – | – | – | – | – | –
4 | Cc1cc(C)c2c(n1)S(=O)(=O)c1c-2nc(NCCCN2CCCC2)c2ccccc12 [7bh, 7,9-Dimethyl-5-((3-(pyrrolidin-1-yl)propyl)amino)-pyrido[3′,2′:4,5]thieno[3,2-c]isoquinoline 11,11-dioxide] | 4.79 ± 0.4 | 4.84 ± 0.74 | 5.9 ± 1.45 | 3.47 ± 0.84 | 4.83 ± 0.67 | 3.83 ± 0.14 | – | potent Topo I activity | 40 | – | – | – | – | – | –
5 | Cc1cc(C)c2c(n1)S(=O)(=O)c1c-2nc(NCCN2CCOCC2)c2ccccc12 [7bd, 7,9-Dimethyl-5-((2-morpholinoethyl)amino)pyrido[3′,2′:4,5]thieno[3,2-c]isoquinoline 11,11-dioxide] | > 100 | > 100 | > 100 | > 100 | > 100 | > 100 | – | weak Topo I activity | – | – | – | – | – | – | –
6 | Cc1cc(C)c2c(n1)S(=O)(=O)c1c-2nc(NCCN2CCCC2)c2ccccc12 [7bc, 7,9-Dimethyl-5-((2-(pyrrolidin-1-yl)ethyl)amino) pyrido[3′,2′:4,5]thieno[3,2-c]isoquinoline 11,11-dioxide] | 9.57 ± 2.07 | 5.47 ± 0.82 | 6.41 ± 1.41 | 3.36 ± 0.83 | 6.44 ± 0.76 | 8.17 ± 3.36 | – | potent Topo I activity | – | – | – | – | – | – | –
7 | Cc1cc(-c2ccccc2)nc2c1-c1nc(NCCCN(C)C)c3ccccc3c1S2(=O)=O [7cf, 5-((3-(Dimethylamino)propyl)amino)-7-methyl-9-phenylpyrido[3′,2′:4,5]thieno[3,2-c]isoquinoline 11,11-dioxide] | – | – | – | – | – | – | nicked DNA could be clearly observed | – | – | 12.6 ± 2.23 | > 100 | 16.6 ± 3.08 | 21.5 ± 3.81 | 13.3 ± 4.44 | 12.1 ± 3.26
8 | O=S1(=O)c2ncccc2-c2nc(NCCN3CCCC3)c3ccccc3c21 [7ac, 5-((2-(Pyrrolidin-1-yl)ethyl)amino)pyrido[3′,2′:4,5] thieno[3,2-c]isoquinoline 11,11-dioxide] | 12 ± 4.2 | 9.69 ± 2.08 | 16.9 ± 3.27 | 14.6 ± 2.12 | 15.2 ± 3.41 | 14.2 ± 2.77 | nicked DNA could be clearly observed | – | – | – | – | – | – | – | –
9 | NCCCNc1nc2c(c3ccccc13)S(=O)(=O)c1ncccc1-2 [7ak, 5-((3-Aminopropyl)amino)pyrido[3′,2′:4,5]thieno[3,2-c]isoquinoline 11,11-dioxide] | 56.6 ± 3.25 | 52 ± 1.49 | 7.94 ± 3.26 | 10.6 ± 1.32 | 10.2 ± 1.61 | > 100 | nicked DNA could be clearly observed | – | – | – | – | – | – | – | –
10 | CCN(CC)CCCNc1nc2c(c3ccccc13)S(=O)(=O)c1nc(C)cc(C)c1-2 [7bg, 5-((3-(Diethylamino)propyl)amino)-7,9-dimethyl-pyrido[3′,2′:4,5]thieno[3,2-c]isoquinoline 11,11-dioxide] | 6.92 ± 2.01 | 6.54 ± 0.52 | 6.89 ± 2.86 | 6.35 ± 3.28 | 6.23 ± 1.96 | 4.38 ± 0.46 | – | weak Topo I activity | – | – | – | – | – | – | –
11 | Cc1cc(-c2ccccc2)nc2c1-c1nc(NCCCN3CCCC3)c3ccccc3c1S2(=O)=O [7ch, 7-Methyl-9-phenyl-5-((3-(pyrrolidin-1-yl)propyl)-amino)pyrido[3′,2′:4,5]thieno[3,2-c]isoquinoline 11,11-dioxide] | – | – | – | – | – | – | nicked DNA could be clearly observed | – | – | > 100 | > 100 | > 100 | > 100 | > 100 | 49.6 ± 3.27
12 | Cc1cc(C)c2c(n1)S(=O)(=O)c1c-2nc(NCCCN2CCOCC2)c2ccccc12 [7bi, 7,9-Dimethyl-5-((3-morpholinopropyl)amino)-pyrido[3′,2′:4,5]thieno[3,2-c]isoquinoline 11,11-dioxide] | 73.68 ± 0.67 | 80.5 ± 2.44 | > 100 | 20.3 ± 2.89 | > 100 | 87.4 ± 2.65 | – | weak Topo I activity | – | – | – | – | – | – | –
13 | Cc1cc(C)c2c(n1)S(=O)(=O)c1c-2nc(NCCCN(C)C)c2ccccc12 [7bf, 5-((3-(Dimethylamino)propyl)amino)-7,9-dimethylpyrido[3′,2′:4,5]thieno[3,2-c]isoquinoline 11,11-dioxide] | 5.07 ± 1.92 | 6.25 ± 2.23 | 6.67 ± 1.49 | 5.2 ± 1.2 | 8.44 ± 2.86 | 5.14 ± 1.55 | – | potent Topo I activity; also recorded: weak Topo I activity | – | – | – | – | – | – | –

Source: publication PMC11858653, “Design, Synthesis and Bioactive Evaluation of Topo I/c-MYC Dual Inhibitors to Inhibit Oral Cancer via Regulating the PI3K/AKT/NF-κB Signaling Pathway” (Molecules, 2025)
